{"source": "ChEMBL document CHEMBL5316291", "about": "(J Med Chem, 2023)", "key": {"[1]": {"target": "T1, Protein mono-ADP-ribosyltransferase TIPARP (Homo sapiens, UniProt Q7Z3E1)", "T1 sequence (Q7Z3E1 whole entry)": "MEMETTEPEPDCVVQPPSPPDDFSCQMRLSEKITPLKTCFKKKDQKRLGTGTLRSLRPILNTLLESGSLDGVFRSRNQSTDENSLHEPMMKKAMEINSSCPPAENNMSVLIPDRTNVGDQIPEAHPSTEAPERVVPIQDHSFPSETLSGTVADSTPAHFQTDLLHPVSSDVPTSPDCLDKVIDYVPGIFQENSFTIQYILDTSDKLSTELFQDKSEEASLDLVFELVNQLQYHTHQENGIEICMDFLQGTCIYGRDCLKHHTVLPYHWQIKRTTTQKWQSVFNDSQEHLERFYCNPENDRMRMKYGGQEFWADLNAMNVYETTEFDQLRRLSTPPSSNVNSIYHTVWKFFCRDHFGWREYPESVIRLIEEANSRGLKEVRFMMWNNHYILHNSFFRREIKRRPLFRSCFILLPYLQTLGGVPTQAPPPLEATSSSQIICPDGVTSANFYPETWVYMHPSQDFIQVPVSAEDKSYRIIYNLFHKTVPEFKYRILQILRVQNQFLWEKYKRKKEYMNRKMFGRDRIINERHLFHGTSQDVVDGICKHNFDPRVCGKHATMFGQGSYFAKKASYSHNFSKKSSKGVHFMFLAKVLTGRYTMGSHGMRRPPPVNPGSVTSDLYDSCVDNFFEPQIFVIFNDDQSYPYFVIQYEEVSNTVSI", "assay": "Inhibition of human recombinant N-terminal FLAG tagged PARP7 (400 to 657 end residues) incubated for 1 hr by ELISA assay"}, "[2]": {"target": "Poly [ADP-ribose] polymerase 1 (Homo sapiens, UniProt P09874)", "sequence (P09874 whole entry)": "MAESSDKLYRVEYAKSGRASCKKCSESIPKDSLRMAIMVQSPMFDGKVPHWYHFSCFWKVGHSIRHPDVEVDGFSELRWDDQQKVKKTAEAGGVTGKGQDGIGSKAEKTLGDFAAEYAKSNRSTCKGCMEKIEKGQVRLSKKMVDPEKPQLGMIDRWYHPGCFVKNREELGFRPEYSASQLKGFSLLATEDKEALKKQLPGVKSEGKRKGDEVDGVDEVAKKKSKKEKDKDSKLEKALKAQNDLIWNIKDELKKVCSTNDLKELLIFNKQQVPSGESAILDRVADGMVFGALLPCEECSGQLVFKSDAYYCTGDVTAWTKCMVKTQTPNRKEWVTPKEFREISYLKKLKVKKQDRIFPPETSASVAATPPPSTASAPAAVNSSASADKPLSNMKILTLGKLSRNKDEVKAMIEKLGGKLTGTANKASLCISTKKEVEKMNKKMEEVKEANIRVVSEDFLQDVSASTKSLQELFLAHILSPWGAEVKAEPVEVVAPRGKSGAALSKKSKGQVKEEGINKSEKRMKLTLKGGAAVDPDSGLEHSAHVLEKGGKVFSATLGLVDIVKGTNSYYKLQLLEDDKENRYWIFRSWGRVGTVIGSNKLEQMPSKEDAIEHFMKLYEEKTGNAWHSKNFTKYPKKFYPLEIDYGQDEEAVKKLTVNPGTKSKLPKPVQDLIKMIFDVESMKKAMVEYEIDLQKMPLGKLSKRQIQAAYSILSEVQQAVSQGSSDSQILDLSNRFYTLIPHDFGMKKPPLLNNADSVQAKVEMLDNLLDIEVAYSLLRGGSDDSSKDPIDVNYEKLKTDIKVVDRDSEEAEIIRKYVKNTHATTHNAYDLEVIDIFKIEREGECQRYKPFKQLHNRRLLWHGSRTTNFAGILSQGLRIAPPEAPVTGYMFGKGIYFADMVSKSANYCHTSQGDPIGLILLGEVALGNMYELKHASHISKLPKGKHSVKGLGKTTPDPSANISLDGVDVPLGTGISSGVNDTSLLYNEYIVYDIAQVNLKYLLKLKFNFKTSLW", "assay": "Inhibition of human recombinant N-terminal GST-tagged PARP1 (2 to 1014 end residues) incubated for 1 hr by ELISA assay"}, "[3]": {"target": "T2, Poly [ADP-ribose] polymerase tankyrase-2 (Homo sapiens, UniProt Q9H2K2)", "T2 sequence (Q9H2K2 whole entry)": "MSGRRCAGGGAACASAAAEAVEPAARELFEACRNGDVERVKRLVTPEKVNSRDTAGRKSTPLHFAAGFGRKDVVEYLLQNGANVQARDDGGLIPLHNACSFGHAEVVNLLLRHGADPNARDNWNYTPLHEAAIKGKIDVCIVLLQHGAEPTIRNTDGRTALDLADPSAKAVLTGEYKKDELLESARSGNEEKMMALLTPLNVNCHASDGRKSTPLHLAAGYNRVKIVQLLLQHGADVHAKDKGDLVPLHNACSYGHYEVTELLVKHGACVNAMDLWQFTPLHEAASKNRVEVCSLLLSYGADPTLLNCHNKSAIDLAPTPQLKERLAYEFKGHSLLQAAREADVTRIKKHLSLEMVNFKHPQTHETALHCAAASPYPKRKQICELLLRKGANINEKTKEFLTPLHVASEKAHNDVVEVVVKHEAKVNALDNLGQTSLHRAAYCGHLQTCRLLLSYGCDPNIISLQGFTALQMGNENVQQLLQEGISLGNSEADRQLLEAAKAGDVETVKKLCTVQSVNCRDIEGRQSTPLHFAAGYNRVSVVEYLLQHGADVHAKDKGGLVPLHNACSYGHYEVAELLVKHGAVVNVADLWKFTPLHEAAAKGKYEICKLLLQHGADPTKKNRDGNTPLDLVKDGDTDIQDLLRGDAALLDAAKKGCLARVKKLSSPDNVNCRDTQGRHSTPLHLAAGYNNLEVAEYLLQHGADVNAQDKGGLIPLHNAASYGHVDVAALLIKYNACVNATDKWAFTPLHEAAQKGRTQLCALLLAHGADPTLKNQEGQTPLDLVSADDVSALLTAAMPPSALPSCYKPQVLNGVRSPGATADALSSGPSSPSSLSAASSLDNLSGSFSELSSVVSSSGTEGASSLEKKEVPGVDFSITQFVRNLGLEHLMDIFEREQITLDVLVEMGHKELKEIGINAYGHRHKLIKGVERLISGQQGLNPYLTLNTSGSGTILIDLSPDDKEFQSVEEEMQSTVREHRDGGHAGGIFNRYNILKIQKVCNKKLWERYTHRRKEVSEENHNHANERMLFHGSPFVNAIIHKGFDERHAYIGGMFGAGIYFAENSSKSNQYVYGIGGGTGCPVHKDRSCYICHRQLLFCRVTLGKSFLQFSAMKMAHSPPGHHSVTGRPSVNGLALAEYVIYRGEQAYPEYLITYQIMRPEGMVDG", "assay": "Inhibition of human recombinant N-terminal GST-tagged PARP5b (667 to 1166 end residues) expressed in baculovirus infected Sf9 cells expression system incubated for 1 hr by ELISA assay"}, "[4]": {"assay": "Tmax in ICR mouse at 1 mg/kg, iv measured upto 24 hrs by LC-MS/MS analysis", "type": "ADME, organism-based", "details": "in vivo"}, "[5]": {"assay": "MRT(0 to infinity) in ICR mouse at 10 mg/kg, po measured upto 24 hrs by LC-MS/MS analysis", "type": "ADME, organism-based", "details": "in vivo"}, "[6]": {"target": "T3, Protein mono-ADP-ribosyltransferase TIPARP (Mus musculus) (UniProt Q8C1B2)", "T3 sequence (whole entry)": "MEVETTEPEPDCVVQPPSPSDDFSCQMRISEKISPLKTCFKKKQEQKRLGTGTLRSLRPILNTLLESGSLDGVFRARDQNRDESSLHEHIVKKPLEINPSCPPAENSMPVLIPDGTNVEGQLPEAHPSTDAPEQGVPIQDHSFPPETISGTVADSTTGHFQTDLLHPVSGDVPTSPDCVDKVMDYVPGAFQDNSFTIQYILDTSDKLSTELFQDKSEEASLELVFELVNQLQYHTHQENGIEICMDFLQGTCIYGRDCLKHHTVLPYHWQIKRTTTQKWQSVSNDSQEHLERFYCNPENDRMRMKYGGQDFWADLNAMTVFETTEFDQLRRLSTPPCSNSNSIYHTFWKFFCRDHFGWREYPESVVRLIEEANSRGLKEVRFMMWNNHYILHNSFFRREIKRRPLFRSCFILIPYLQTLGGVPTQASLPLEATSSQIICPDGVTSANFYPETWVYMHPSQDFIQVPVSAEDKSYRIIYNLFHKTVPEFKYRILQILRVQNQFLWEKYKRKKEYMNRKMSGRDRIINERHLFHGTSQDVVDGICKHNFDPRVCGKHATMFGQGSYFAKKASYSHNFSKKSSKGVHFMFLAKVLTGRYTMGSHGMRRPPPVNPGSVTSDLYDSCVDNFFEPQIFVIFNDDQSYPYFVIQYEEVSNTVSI", "assay": "Inhibition of PARP7 in mouse CT26 cells assessed as increase in IFN-beta levels at 49 to 4000 nmol/L measured after 48 hrs by RT-qPCR analysis", "type": "cell-based", "details": "dose lower […], dose upper 4000.0 nmol/L"}, "[7]": {"assay": "Cytotoxicity against mouse AML12 cells assessed as inhibition of cell growth measured after 6 days by MTT assay", "type": "toxicity, cell-based"}, "[8]": {"assay": "Toxicity in BALB/c mouse implanted with mouse CT26 cells assessed as spleen damage at 100 mg/kg, po measured for 14 days by hematoxylin and eosin staining based fluorescence microscopic analysis", "type": "organism-based", "details": "in vivo, 336 h, time 14 day"}}, "note": "Active and inactive are the calls of the source. No cut-off for these calls is given here."}
{"smiles": "C[C@@H](CN1CC(C(=O)N2CCN(c3ncc(C(F)(F)F)cn3)CC2)C1)Nc1cn[nH]c(=O)c1C(F)(F)F", "values": [{"measurement": "IC50", "setting": "[1]", "value": 7.6, "unit": "nM"}, {"measurement": "IC50", "setting": "[2]", "value": "> 5000", "unit": "nM"}, {"measurement": "IC50", "setting": "[3]", "value": 227, "unit": "nM"}, {"measurement": "Tmax", "setting": "[4]", "value": 4.8, "unit": "min"}, {"measurement": "MRT inf", "setting": "[5]", "value": 1.97, "unit": "h"}, {"measurement": "inhibition", "setting": "[6]", "value": "Active"}, {"measurement": "IC50 at 6 days", "setting": "[7]", "value": "> 50000", "unit": "nM"}, {"measurement": "Activity", "setting": "[8]", "value": "Non-Toxic"}]}
